# In patent US11207310B2 (PRILENIA NEUROTHERAPEUTICS LTD., priority 2016, dated 2021):
# Where two headings read alike, the source gives them in different places.
# Experiments:
# [1] = tested on: patients with HD
# Protocol: The independence scale of the UHDRS is a rating scale where the patient's degree of independence was given in percentage, from 10% (tube fed, total bed care) to 100% (no special care needed). […] Patients with a UHDRS-IS score >90% at the screening visit were not eligible for the study.
# It is a rating scale where the patient's degree of independence is given in percentage, from 10% (tube fed, total bed care) to 100% (no special care needed). […] The scale was assessed at screening, baseline, weeks 4, 12, 20, 26/Early Termination, 28 and 52/Early Termination.
# [2] = tested on: patients with HD; conditions: Week 26
# Protocol: The HD-QoL is a standardized instrument for measuring health-related quality of life. […] It is a validated disease-specific measure designed for HD, and can provide a summary score of overall health-related quality of life, as well as scores on several discrete scales. […] HD-QoL can be used across the full spectrum of HD.
# The change from baseline in HD-QoL and in EQSD-5L was analyzed using an Analysis of Covariance (ANCOVA) Model. The model includes the following fixed effects: treatment, center, neuroleptic use or no use, and baseline HD-QoL or EQSD-5L score. The last observation carried forward (LOCF) was applied for these endpoints for early terminated subjects.
smiles,measurement,setting,value
"CCCN1CCC(c2cccc(S(C)(=O)=O)c2)CC1 [pridopidine, 4-[3-(methylsulfonyl)phenyl]-1-propyl-piperidine]","UHDRS Independence Scale, change from baseline, Δ to placebo","[1]; 45 mg bid, Week 26, BL TFC<7, p value 0.8796",0.3
same,"UHDRS Independence Scale, change from baseline, Wk 26 Δ to placebo","[1]; 45 mg bid, Week 26, BL TFC≥7, p value 0.0128",2.22
same,"Change from baseline in UHDRS Independence Scale, Δ to placebo","[1]; 45 mg bid, Week 26, Stage 1 BL TFC 11-13",4.94
same,"Change from baseline in UHDRS Independence Scale, Δ to placebo","[1]; 45 mg bid, Week 52, ALL",0.86
same,"UHDRS Independence Scale, change from baseline, Δ to placebo","[1]; 45 mg bid, Week 52, BL TFC<7, p value 0.5799",−1.85
same,"UHDRS Independence Scale, change from baseline, Δ to placebo","[1]; 45 mg bid, Week 52, BL TFC≥7, p value 0.1047",1.99
same,"Change from baseline in UHDRS Independence Scale, Δ to placebo","[1]; 45 mg bid, Week 52, Stage 1 BL TFC 11-13",3.05
same,"Change from baseline in UHDRS Independence Scale, Δ to placebo","[1]; 67.5 mg bid, Week 26, ALL",0.3
same,"UHDRS Independence Scale, change from baseline, Δ to placebo","[1]; 67.5 mg bid, Week 26, BL TFC<7, p value 0.8027",−0.44
same,"UHDRS Independence Scale, change from baseline, Wk 26 Δ to placebo","[1]; 67.5 mg bid, Week 26, BL TFC≥7, p value 0.2755",0.99
same,"Change from baseline in UHDRS Independence Scale, Δ to placebo","[1]; 67.5 mg bid, Week 26, Stage 1 BL TFC 11-13",2.27
same,"Change from baseline in UHDRS Independence Scale, Δ to placebo","[1]; 67.5 mg bid, Week 52, ALL",0.25
same,"UHDRS Independence Scale, change from baseline, Δ to placebo","[1]; 67.5 mg bid, Week 52, BL TFC<7, p value 0.2415",−3.46
same,"UHDRS Independence Scale, change from baseline, Δ to placebo","[1]; 67.5 mg bid, Week 52, BL TFC≥7, p value 0.0788",2.22
same,"Change from baseline in UHDRS Independence Scale, Δ to placebo","[1]; 67.5 mg bid, Week 52, Stage 1 BL TFC 11-13",0.91
same,"Change from baseline in UHDRS Independence Scale, Δ to placebo","[1]; 90 mg bid, Week 26, ALL",0.78
same,"UHDRS Independence Scale, change from baseline, Δ to placebo","[1]; 90 mg bid, Week 26, BL TFC<7, p value 0.9116",0.2
same,"UHDRS Independence Scale, change from baseline, Wk 26 Δ to placebo","[1]; 90 mg bid, Week 26, BL TFC≥7, p value 0.0949",1.48
same,"Change from baseline in UHDRS Independence Scale, Δ to placebo","[1]; 90 mg bid, Week 26, Stage 1 BL TFC 11-13",1.73
same,"Change from baseline in UHDRS Independence Scale, Δ to placebo","[1]; 90 mg bid, Week 52, ALL",−0.07
same,"UHDRS Independence Scale, change from baseline, Δ to placebo","[1]; 90 mg bid, Week 52, BL TFC<7, p value 0.0779",−5.25
same,"UHDRS Independence Scale, change from baseline, Δ to placebo","[1]; 90 mg bid, Week 52, BL TFC≥7, p value 0.0228",2.79
same,"Change from baseline in UHDRS Independence Scale, Δ to placebo","[1]; 90 mg bid, Week 52, Stage 1 BL TFC 11-13",1.16
same,"Change from baseline in UHDRS Independence Scale, Δ to placebo","[1]; 112.5 mg bid, Week 26, ALL",1.41
same,"UHDRS Independence Scale, change from baseline, Δ to placebo","[1]; 112.5 mg bid, Week 26, BL TFC<7, p value 0.3578",1.65
same,"UHDRS Independence Scale, change from baseline, Wk 26 Δ to placebo","[1]; 112.5 mg bid, Week 26, BL TFC≥7, p value 0.0919",1.51
same,"Change from baseline in UHDRS Independence Scale, Δ to placebo","[1]; 112.5 mg bid, Week 26, Stage 1 BL TFC 11-13",2.38
same,"Change from baseline in UHDRS Independence Scale, Δ to placebo","[1]; 112.5 mg bid, Week 52, ALL",0.18
same,"UHDRS Independence Scale, change from baseline, Δ to placebo","[1]; 112.5 mg bid, Week 52, BL TFC<7, p value 0.8613",−0.52
same,"UHDRS Independence Scale, change from baseline, Δ to placebo","[1]; 112.5 mg bid, Week 52, BL TFC≥7, p value 0.7301",0.44
same,"Change from baseline in UHDRS Independence Scale, Δ to placebo","[1]; 112.5 mg bid, Week 52, Stage 1 BL TFC 11-13",−1.61
same,change from baseline in the UHDRS-IS,"[1]; any treatment group, week 52",not statistically significant in any treatment group
same,"Change from baseline in HD-QoL Participant Total Score, Δ to placebo","[2]; 45 mg bid, ALL",1.91
same,"HD-QoL Participant Total Score, change from baseline, Δ to placebo","[2]; 45 mg bid, BL TFC<7, p value 0.6958",4.87
same,"HD-QoL Participant Total Score, change from baseline, Δ to placebo","[2]; 45 mg bid, BL TFC≥7, p value 0.9144",0.51
same,"Change from baseline in HD-QoL Participant Total Score, Δ to placebo","[2]; 45 mg bid, Stage 2 BL TFC 7-10",3.22
same,"Change from baseline in HD-QoL Participant Total Score, Δ to placebo","[2]; 67.5 mg bid, ALL",8.7
same,"HD-QoL Participant Total Score, change from baseline, Δ to placebo","[2]; 67.5 mg bid, BL TFC<7, p value 0.9304",1
same,"HD-QoL Participant Total Score, change from baseline, Δ to placebo","[2]; 67.5 mg bid, BL TFC≥7, p value 0.0284",10.63
same,"Change from baseline in HD-QoL Participant Total Score, Δ to placebo","[2]; 67.5 mg bid, Stage 2 BL TFC 7-10",16.33
same,"Change from baseline in HD-QoL Participant Total Score, Δ to placebo","[2]; 90 mg bid, ALL",6.95
same,"HD-QoL Participant Total Score, change from baseline, Δ to placebo","[2]; 90 mg bid, BL TFC<7, p value 0.817",2.61
same,"HD-QoL Participant Total Score, change from baseline, Δ to placebo","[2]; 90 mg bid, BL TFC≥7, p value 0.2834",5.17
same,"Change from baseline in HD-QoL Participant Total Score, Δ to placebo","[2]; 90 mg bid, Stage 2 BL TFC 7-10",10.64
same,"Change from baseline in HD-QoL Participant Total Score, Δ to placebo","[2]; 112.5 mg bid, ALL",−1.36
same,"HD-QoL Participant Total Score, change from baseline, Δ to placebo","[2]; 112.5 mg bid, BL TFC<7, p value 0.7016",−4.33
same,"HD-QoL Participant Total Score, change from baseline, Δ to placebo","[2]; 112.5 mg bid, BL TFC≥7, p value 0.8365",−0.99
same,"Change from baseline in HD-QoL Participant Total Score, Δ to placebo","[2]; 112.5 mg bid, Stage 2 BL TFC 7-10",4.29
